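Where inhibition never reached the appropriate level, the endpoint shown equals the highest concentration tested. Otherwise, values were interpolated linearly from a five-concentration, 48-hour dose response in 96-well plates. GI50 = concentration required for 50% inhibition of growth. Definition used: TGI = concentration required for complete inhibition of growth.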
Key:
Experiment in all cases: DTP human tumour cell line panel, 48 h
786-0 renal = tested on: 786-0 renal
CCRF-CEM leukemia = tested on: CCRF-CEM leukemia
HOP-92 NSCLC = tested on: HOP-92 NSCLC
HT29 colon = tested on: HT29 colon
K-562 leukemia = tested on: K-562 leukemia
MOLT-4 leukemia = tested on: MOLT-4 leukemia
SF-539 CNS = tested on: SF-539 CNS
SK-MEL-2 melanoma = tested on: SK-MEL-2 melanoma
SK-MEL-5 melanoma = tested on: SK-MEL-5 melanoma

Row | SMILES | TGI (786-0 renal) [µM] | TGI (CCRF-CEM leukemia) [µM] | TGI (HOP-92 NSCLC) [µM] | TGI (HT29 colon) [µM] | TGI (K-562 leukemia) [µM] | TGI (MOLT-4 leukemia) [µM] | TGI (SF-539 CNS) [µM] | TGI (SK-MEL-2 melanoma) [µM] | TGI (SK-MEL-5 melanoma) [µM] | GI50 (SF-539 CNS) [µM] | GI50 (CCRF-CEM leukemia) [µM] | GI50 (HOP-92 NSCLC) [µM]
1 | CC(NC(=O)N(C)C)NC(=O)N(C)C | > 10 | > 10 | > 10 | > 10 | > 10 | > 10 | > 10 | > 10 | > 10 |  |  | 
2 | O=C1c2ccccc2NC(=S)[C@@H]2CCCN12 | > 100 | > 100 | > 100 | > 100 | > 100 | > 100 | > 100 | > 100 | > 100 |  |  | 
3 | N#Cc1nc(C2CCC2)oc1N | > 100 | 54.7 | > 100 | > 100 | > 100 | > 100 | > 100 | > 100 | > 100 |  |  | 
4 | COc1cc2ccc1OCc1cccc(n1)COc1ccc(cc1OC)C=Nc1ccc(cc1)N=C2 | > 100 | > 100 | > 100 | > 100 | > 100 | > 100 | > 100 | > 100 | > 100 |  |  | 
5 | COC1=C(C)C(=O)c2c(c(COC(N)=O)c3n2CC(OC(C)=O)C3OC(C)=O)C1=O (stereo not drawn) | 0.0581 | 13.8 | 0.54 | 0.25 | > 100 | 2.03 | 0.165 | 0.387 | 0.392 |  |  | 
6 | C[C@]12CC[C@@H]3c4cc(I)c(O)cc4CC[C@H]3[C@@H]1CC[C@@H]2O | 18.4 | 22.4 | 26.3 | 34.3 | 24.2 | > 54.8 | 7.76 | 13.7 | 12.2 | 3.02 |  | 
7 | COC(=O)[C@H](Cc1ccccc1)NC(=O)CCCCCCC(=O)NO | > 100 | > 100 | 71.9 | > 100 | > 100 | > 100 | > 100 | 23.8 | 28.6 |  |  | 
8 | O=c1[nH]c(Nc2cccc(CO)c2)nc2nc[nH]c12 | > 100 | > 100 | > 100 | > 100 | > 100 | > 100 | > 100 | > 100 | > 100 |  |  | 
9 | COc1cc(NC(C)=O)ccc1C(=O)NN1C(=O)/C(=C/c2ccco2)N=C1c1ccccc1 | > 50 | 31.1 | > 50 | > 50 | > 50 | 45.6 | > 50 | > 50 | > 50 |  |  | 
10 | Nc1nn2c(=O)c3ccccc3nc2s1 | > 100 | 46.9 | > 100 | > 100 | 88.7 | 53.1 | > 100 | > 100 | > 100 |  |  | 
11 | Cc1ccc(/C=C2\Cc3c(C)cc(C)cc3C2=O)c(C(=O)O)c1 | > 100 | > 100 | > 100 | > 100 | > 100 | > 100 | 46.2 | 83.6 | 85.2 |  |  | 
12 | COCCOCCOC1=CC(=O)c2c(O)ccc(O)c2C1=O | 3.2 | 4.48 | 3.71 | 1.79 | 3.77 | 5.56 | 3.9 | 3.47 | 0.329 |  |  | 
13 | CN(C)CC1CCC(CN(C)C)C1=O (stereo not drawn) | 4.11 | > 100 | 4.07 | 16.2 | > 20.3 | 4.03 | 33.3 | 21.6 | 15.9 |  | 0.319 | 1.93
14 | N#Cc1nc(NC(=O)c2ccccc2C(=O)O)c(C#N)[nH]1 | > 100 | > 100 | > 100 | > 100 | > 100 | > 100 | > 100 | > 100 | > 100 |  |  | 
15 | COc1cc(/C=C/C=C2\CC/C(=C\C=C\c3ccc(O)c(OC)c3)C2=O)ccc1O | > 100 | 8.26 | > 100 | > 100 | 52.7 | 22.2 | > 100 | > 100 | > 100 |  |  | 
16 | C#CCN(Cc1ccc2nc(OC)c(OC)nc2c1)c1cc(OC)c(OC)c(OC)c1 | 78.7 | > 100 | 62.6 | 72 | > 100 | 72.6 | 43.6 | > 87.8 | 23.1 |  |  | 
17 | COC1CC(OC2CCC3(C)C(=CCC4C3C(OC(C)=O)C(OC(=O)CC(C)C)C3(C)C(C(C)=O)CCC43O)C2)OC(C)C1OC1CC(OC)C(OC2CC(OC)C(OC3OC(C)C(OC4OC(CO)C(O)C(O)C4O)C(OC)C3O)C(C)O2)C(C)O1 (stereo not drawn) | > 75 | > 7.5 | > 75 | > 75 | > 75 | > 75 | > 75 | > 75 | > 75 |  |  | 
18 | COc1cc2c(cc1OC)-c1cc3ccccc3c(=O)n1CC2 |  | > 100 | 63 | 98.9 | > 100 | 97 | 41.9 | 48.8 | 23.5 |  |  | 
19 | Oc1[nH]c2ccccc2c1N=NC(=S)Nc1ccc(Cl)cc1 | > 100 | > 100 | > 100 | > 100 | > 100 | > 100 | 82.3 | > 100 | 63.4 |  |  | 

From PubChem BioAssay (NCI)
